# Experimental data: US20230235378A1, “LZHEIMER'S DISEASE-SPECIFIC ALTERATIONS OF PROTEIN KINASE C EPSILON (PKC-EPSILON PROTEIN LEVELS” (WEST VIRGINIA UNIVERSITY BOARD OF GOVERNORS ON BEHALF OF …, priority 2010, published 2023)
# pEC50: −log10 of the molar value.
# What was measured:
# purified PKC = biological target: T1, purified PKC (Homo sapiens, UniProt Q02156); test: PKC isozyme specificity: purified PKC preincubated with compound, activity measured radiometrically; assay type: biochemical; settings: for concentration needed to activate PKC, relative to BR-101 (DCP-LA): compared with BR-101 (DCP-LA); for activation of purified PKC: used as methyl esters
# T1 construct: purchased Calbiochem
# T1 sequence (Q02156 1-737): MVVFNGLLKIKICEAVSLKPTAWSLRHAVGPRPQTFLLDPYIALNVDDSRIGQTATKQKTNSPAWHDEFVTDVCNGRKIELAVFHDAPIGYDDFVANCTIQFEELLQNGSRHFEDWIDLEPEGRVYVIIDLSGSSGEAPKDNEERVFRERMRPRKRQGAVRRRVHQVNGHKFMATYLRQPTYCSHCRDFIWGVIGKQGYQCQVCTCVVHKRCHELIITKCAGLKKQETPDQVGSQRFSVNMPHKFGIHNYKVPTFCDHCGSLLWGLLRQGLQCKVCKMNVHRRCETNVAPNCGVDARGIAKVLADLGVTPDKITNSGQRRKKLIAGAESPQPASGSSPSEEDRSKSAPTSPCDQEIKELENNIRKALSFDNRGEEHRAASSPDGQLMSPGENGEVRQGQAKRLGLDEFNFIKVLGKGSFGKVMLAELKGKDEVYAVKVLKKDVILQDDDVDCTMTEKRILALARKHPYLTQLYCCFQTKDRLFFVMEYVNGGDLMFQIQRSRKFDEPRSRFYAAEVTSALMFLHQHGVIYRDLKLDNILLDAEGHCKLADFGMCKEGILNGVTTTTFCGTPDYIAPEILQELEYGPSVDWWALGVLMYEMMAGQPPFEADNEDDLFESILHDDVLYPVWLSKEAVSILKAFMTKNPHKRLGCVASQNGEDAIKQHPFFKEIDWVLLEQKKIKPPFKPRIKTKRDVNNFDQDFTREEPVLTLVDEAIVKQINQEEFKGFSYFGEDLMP
# Protocol: (§1) Protein Kinase C Assay. Rat hippocampal cells were cultured and scraped in 0.2 ml homogenization buffer (20 mM Tris-HCl, pH 7.4, 50 mM NaF, 1 μg/ml leupeptin, and 0.1 mM PMSF) and homogenized by sonication in a Marsonix micro-probe sonicator (5 sec, 10 W). To measure PKC, 10 μl of cell homogenate or purified PKC isozyme (purchased from Calbiochem) was incubated for 15 min at 37° C. in the presence of 10 μM histones, 4.89 mM CaCl2, 1.2 μg/μl phosphatidyl-L-serine, 0.18 μg/μl 1,2-dioctanoyl-sn-glycerol, 10 mM MgCl2, 20 mM HEPES (pH 7.4), 0.8 mM EDTA, 4 mM EGTA, 4% glycerol, 8 μg/ml aprotinin, 8 μg/ml leupeptin, and 2 mM benzamidine. 0.5 μCi [γ-32P]ATP was added and 32P-phosphoprotein formation was measured by adsorption onto phosphocellulose as described previously. Nelson and Alkon, J. Neurochemistry. 1995; 65: 2350-57. For measurements of activation by BR-101 (DCP-LA) and similar compounds, PKC activity was measured in the absence of diacylglycerol and phosphatidylserine, as described by Kanno et al., and PKC δ, ε, η, and were measured in the absence of added EGTA and CaCl2, as described by Kanno et al., J. Lipid Res. 2006; 47: 1146-50. Low concentrations of Ca2+ are used because high Ca2+ interacts with the PKC phosphatidylserine binding site and prevents activation. For measurements of bryostatin activation, 1,2-diacylglycerol was omitted unless otherwise stated.
# To determine their PKC isozyme specificity, the new compounds were preincubated with purified PKC for five minutes and the PKC activity was measured radiometrically.
# PKC [1] = settings: read-out: EC50 (affinity for PKC); cited from earlier work
# PKC [2] = test: PKC activity in cultured rat hippocampal H19-7/IGF-IR cells; assay type: cell-based; settings: 8 h; data not shown
# Protocol: Cell Culture. Rat hippocampal H19-7/IGF-IR cells (ATCC, Manassas, Va.) were plated onto poly-L-lysine coated plates and grown at 35° C. in DMEM/10% FCS for several days until about 50% coverage was obtained. The cells were then induced to differentiate into a neuronal phenotype by replacing the medium with 5 ml N2 medium containing 10 ng/ml basic fibroblast growth factor at 39° C. and grown in T-75 flasks at 37° C. Human SH-SY5Y neuroblastoma cells (ATCC) were cultured in 45% F 12K/45% MEM/10% FCS. Mouse N2A neuroblastoma cells were cultured in DMEM/10% FCS without glutamine. Rat hippocampal neurons from 18-day-old embryonic
# as §1
# PKC activators that bind to the diacylglycerol binding site, including bryostatin, gnidimacrin, and phorbol esters, produce a transient activation of PKC activity, followed by a prolonged downregulation. Nelson et al., Trends in Biochem. Sci. 2009; 34: 136-45. This was confirmed in cultured rat hippocampal cells. Incubation of rat 1119-7/IGF-IR cells with (0.04 nM and 0.2 nM) bryostatin produced a 2-fold activation that lasted 30 min, followed by a 20% downregulation that returned to baseline by 24 h (data not shown). […] This sustained activation was only observed in primary neurons.
# Aß = settings: 1 μM, 8 h, cultured COS cells; cited from earlier work
# PKC-ε = PKC-ε level in skin fibroblasts treated with oligomeric Aß1-42 (western blot); assay type: cell-based, human
# Protocol: Immunoblot Analysis: Protein lysates (20 μg of protein each) were boiled in 2× Laemmli buffer for 10 min and separated using a 4-20% gradient Tris-Glycine gels. Separated proteins were transferred to nitrocellulose membrane and the membrane was blocked in BSA at room temperature (RT) for 15 min and incubated with 1:2000 dilution anti-PKC-ε rabbit polyclonal antibody (Santa Cruz Biotechnology, Santa Cruz, Calif.; Cat No: sc-214), and 1:5000 dilution anti-ß-tubulin, class III rabbit monoclonal antibody (Millipore Corporation, Billerica Mass., Cat No: 04-1049) for 1 hr at RT. After the incubation, the membrane fractions were washed 3× with standard western blot washing buffer and further incubated with alkaline phosphatase conjugated secondary antibody (Jackson Immunoresearch Laboratories, USA) at 1:10000 dilution for 45 min. The membrane fractions were finally washed 3× with standard western blot washing buffer and developed using the 1-step NBT-BCIP substrate (Thermo Scientific, Rockford, Ill.). Signal intensities of the images were recorded in the ImageQuant RT-ECL (GE Life Sciences, Piscataway, N.J.) and densitometric quantification was performed using the IMAL software (Blanchette Rockefeller Neurosciences Institute, Morgantown, W. Va.). Intensities quantified in this way, for PKC-ε were normalized against ß-tubulin for each lane.
# Preparation of Soluble Oligomeric Aß: Oligomeric Aß was prepared following the method described by Noguchi et al., (2009). Aß generated by this method was reported to be highly neurotoxic, 10-15 nm spherical Aß assemblies termed as amylospheroids (ASPDs). […]
# Treatment of skin fibroblasts with oligomeric Aß1-42: Skin fibroblasts both from AD and AC cases were cultured for 7 days to 100% confluence. […] The resulting band intensities for PKC-ε were quantified using ImageQuant RT-ECL (GE Life Sciences, USA) and densitometric analysis was performed using the IMAL software (Blanchette Rockefeller Neurosciences Institute, Morgantown, W. Va.).
compound,measurement,setting,value
"CCCCCC1OC1C/C=C\CCCCCCCC(=O)OC (stereo in doubt) [BR-117, vernolic acid methyl ester]",effect on PKC,purified PKC,little or no effect
"CCCCCCCCCCCCCC(=O)O[C@@H]1[C@@H](C)[C@@]2(O)[C@@H](C=C(CO)C[C@]3(O)C(=O)C(C)=C[C@@H]23)[C@@H]2C(C)(C)[C@]12OC(C)=O [PMA, phorbol 12-myristate 13-acetate]",pEC50,PKC [1],[…]
same,downregulation of PKC activity,PKC [2],strongly downregulated
"CCCC(=O)O[C@@H]1[C@@H](C)[C@@]2(O)[C@@H](C=C(CO)C[C@]3(O)C(=O)C(C)=C[C@@H]23)[C@@H]2C(C)(C)[C@]12OC(=O)CCC [PdBu, Phorbol-12,13-dibutyrate]",change in Aß,Aß,increase in Aß
Soluble Aß oligomer: soluble >100 kDa oligomers (amylospheroids) prepared from synthetic Aß1-42 by the method of Noguchi et al.,PKC-ε in age-matched control (AC) skin fibroblasts,"PKC-ε; 500 nM, 24 hrs, five AC cases",decreases
same,PKC-ε in AD skin fibroblasts,"PKC-ε; 500 nM, 24 hrs, five AD cases",did not show decrease in expression
same,AC-AD ratio of normalized PKC-ε in treated cells,PKC-ε; untreated cells 1.4,~1
Linoleic alcohol cyclopropanated [BR-105],effect on PKC,purified PKC,little or no effect
CCC1CC1CC1CC1CC1CC1CC1CC1CC1CC1CCCC(=O)OC (stereo not drawn) [BR-114],"concentration needed to activate PKC, relative to BR-101 (DCP-LA)",purified PKC,approx. 100 times lower
same,activation of purified PKC,purified PKC,activated purified PKC to a similar extent
"CCCCCC1CC1CC1CC1CC1CC1CC1CC1CCCC(=O)OC (stereo not drawn) [BR-115, methyl 4-(2-((2-((2-((pentylcyclopropyl)methyl)cyclopropyl)methyl)cyclopropyl)methyl)cyclopropyl)butanoate methyl ester]","concentration needed to activate PKC, relative to BR-101 (DCP-LA)",purified PKC,approx. 100 times lower
same,activation of purified PKC,purified PKC,activated purified PKC to a similar extent
epoxystearic acid [BR-116],effect on PKC,purified PKC,little or no effect
Linolenyl alcohol cyclpropanated [BR-104],effect on PKC,purified PKC,little or no effect
Vernolic acid cyclopropanated methyl ester [BR-109],concentrations at which PKC was inhibited,purified PKC,above 1 μM
